One compound from patent publication US11638427B2, “Methods and compositions for altering secondary metabolites in plants” (Impello Biosciences, Inc, priority 2020, dated 2023) can be followed below.

SMILES strings stand for the structures.

Assay [1] relates to marijuana variety Lemon Creamsicle. As to the kind of experiment: Foliar spray of CJ or MDJ on high-THC marijuana in greenhouse, cannabinoid analysis. The format is in vivo, Cannabis spp. The note with it: 7.5 mM foliar spray every 14 days, four treatments. The method, then: Applicant's previous experiments investigated the effects of jasmonate-type elicitors MeJA, MDJ, and CJ on hemp (high fiber) and high-CBD, (low-THC) varieties of Cannabis. […] Here, the effects of MDJ and CJ application on a high-THC variety in a controlled environment was investigated. High-THC, low-CBD marijuana variety “Lemon Creamsicle” (LC), was grown in a greenhouse setting. LC was used as a plant model due to its historically consistent metabolite profile in the greenhouse environment, making it a stable, known, and reliable variety.
A four-block plant trial was implemented with a population of N=12 plants and treatment group sizes of n=4. The treatment and control groups were defined as follows: Control=water+0.1% TWEEN®-20 aqueous foliar spray, Treatment 1=[7.5 mM] CJ+0.1% TWEEN®-20 aqueous foliar spray, Treatment 2=[7.5 mM] MDJ+0.1% TWEEN®-20 aqueous foliar spray. A standardized concentration of [7.5 mM] for both CJ and MDJ applications was chosen due to its performance in Applicant's past research. All treatment solutions were prepared the day of the application in equal volumes from pre-measured quantities of the stock materials to ensure consistency, i.e., appropriate volumes of CJ or MDJ were combined with appropriate volumes of TWEEN®-20 for each experimental treatment, stored in a sealed centrifuge tube, and diluted in the appropriate amount of water immediately prior to application. Separate sprayers were used for each treatment and control sprays to avoid cross-contamination.
All plants in the trial were produced as asexual clone stock taken from the same mother plant at the same time to ensure homogeneity. All plants were rooted and grown in accordance with the production practices typical to this greenhouse operator prior to plant selection for the experiment. Due to the layout of the cultivation system, which features immovable hydroponic “pots” that house the plant throughout the entire flowering (i.e., reproductive) phase, all plants included in the experiment were selected from a set section of the greenhouse after final transplant into the hydroponic system and grouped in a complete randomized block design accordingly.
After defining the plants to include in the experiment, which were organized in two (2) rows of six (6) plants side-by-side in the hydroponic system, the experimental blocks were defined as groups of three plants, and a research randomizer tool (randomizer.org) was used to generate a randomized arrangement of plants in each group. Using a blocked design in this setting helped account for the immovable nature of the plants and the slight, if any, environmental differences (like natural sunlight, shading from other plants, and corner/edge effect) that existed in the small experimental area. Blocking the experimental arrangement also allowed for improved statistical analysis and resolution considering the small sample size and close proximity of the experimental plants.
After labelling each plant in the experiment with the appropriate group label (Control, T1 [CJ], or T2 [MDJ]), the plants were allowed to grow normally between treatment applications, which were performed every 14 days for a total of four (4) treatments throughout the flowering cycle, which lasted approximately eight (8) weeks. The first treatment occurred seven (7) days after the onset of the flowering cycle, which was dictated by day-length control. Care was taken with each treatment application to minimize overspray onto non-target neighboring plants, and physical barriers were temporarily installed between plants during treatment sprays to aid in this effort. These barriers were removed following treatment sprays when the foliage was no longer visibly wet from the treatment and/or control foliar sprays. […]

A further assay relates to hemp plants Cv. Zephyr. As to the kind of experiment: Weekly MDJ foliar spray at four concentrations, cannabinoids and terpenes. It counts as in vivo, Cannabis spp. The method, then: To investigate the effect of different concentrations of MDJ, four different concentrations of MDJ was applied to hemp plants (n=5 per treatment, Cv.: Zephyr, CBDRx) weekly via foliar spray at the following concentrations: 1 mM, 4.25 mM, 7.5 mM, 10 mM. Treatment concentrations were prepared as described above and one drop of TWEEN®-20 (VWR, CAS No.: 9005-64-5) was added to treatments to serve as a surfactant. Treatments were applied weekly during both the vegetative (2 treatments) and flowering (6 treatments) developmental stages using a SPRAYMASTER Chemical Sprayer (King of Prussia, Pa.) (8 treatments total). Plants were grown under a total of 12 Boost (Thrive Agritech, NY) 130-watt LED lights set to 18L: 6D photoperiod during the vegetative phase (2 weeks) followed by a 12L: 12D photoperiod during the flowering phase (6 weeks), using the same lighting. Untreated controls served as a comparison to see alterations in metabolite synthesis.

A further assay deals with oyster mushroom. Description: Fungal plug growth on jasmonate-infused PDA plates. The format is cell-based. The note with it: all concentrations (1 mM, 4.25 mM, 10 mM) in PDA; 72 hours and 10 days. The procedure: (§1) MDJ (TCI, CAS No.: 24851-98-7) and CJ were infused into potato dextrose agar (PDA, VWR Cat No.: 90003-494) petri dishes (100×15 mm VWR, Cat No: 25384-094) at concentrations ranging from 1 mM, 4.25 mM, and 10 mM. Each treatment was prepared using a technical grade stock solution of pure chemical (CJ or MDJ) diluted with TWEEN®-20 (VWR, CAS No.: […]). Culturable oyster mushroom and seedling mold served to create fungal mycelial plugs using a sterile 1 mL pipette tip (Eppendorf, Cat No.: 022491458) held upside down. The tips were used to make circle excisions (i.e., fungal plugs) from a mycelial mat grown on PDA with no biochemical infusions. Fungal pugs were then transferred to PDA infused with varying concentrations of CJ or MDJ, and control plates (no CJ or MDJ infusion) to monitor fungal growth at room temperature over time.

For assay [2], the system named is Colletotrichum gloeosporioides. As to the kind of experiment: Mold growth on jasmonate-infused plates, mold 1 isolated from avocado. The format is cell-based. The note with it: various concentrations in plates. The procedure:
as §1
(§2) Based on the above results in Cannabis spp., additional fungi from various crops was sampled and tested. Plates comprising various concentrations of MDJ or MJ were prepared as described above.

The subject of assay [3] is Pencicillium sclerotigenum. Description: Mold growth on jasmonate-infused plates, mold isolated from sweet potato. The note with it: 1 mM, 5 mM, 10 mM, or 20 mM in plates. The format is cell-based. The procedure:
as §1, §2

The subject of another assay is Penicillium spp. Description: Mold growth on jasmonate-infused plates, mold isolated from pineapple. It counts as cell-based. The note with it: 5 mM, 10 mM, or 20 mM in plates. The method, then:
as §1, §2

Where [4] appears, read: all tested concentrations (1, 4.25, 7.5, 10 mM) weekly foliar spray vs untreated controls.

As to `CCCCCC1C(=O)CCC1CC(=O)OC` (stereo not shown) [MDJ, methyl dihydrojasmonate], in assay [1], the “CBGA average relative percent increase compared to the Control group” value was found to be 15.91%, the “THCA average relative percent increase compared to the Control group” value is reported as 6.88%, the “Total Cannabinoids average relative percent increase compared to the Control group” value stood at 6.06% and the “Total THC average relative percent increase compared to the Control group” value turned out to be 5.92%. In addition, in the assay on hemp plants Cv. Zephyr (setting [4]), the CBDA result is recorded as “significantly increased”, the CBGA entry is listed as “significantly increased”, the THCA result is recorded as “significantly increased” and the “Total CBD” value is recorded as “significantly increased”. In the assay with hemp plants Cv. Zephyr (setting [4]), the “Total CBG” value is on record as “significantly increased” and the Total cannabinoids entry is recorded as “significantly increased”. Moreover, in the assay on hemp plants Cv. Zephyr (weekly foliar spray 1-10 mM), the several terpenes entry is “altered”. Moreover, the CBL entry with hemp plants Cv. Zephyr (weekly foliar spray, CBL not detected at all in the control samples) is reported as “detectable levels”. In addition, in the assay with oyster mushroom, the “Oyster mushroom fungal growth compared to control” value is “showed inhibition”. In assay [2], the “growth of mold isolated from avocado (mold 1)” value was “effective at preventing the growth”. Also, the “growth of mold isolated from sweet potato” value in assay [3] is on record as “effective at preventing the growth”. The “growth of mold isolated from pineapple” value with Penicillium spp. was “effective at preventing the growth”.
